The NIST ThermoML archive (doi:10.1021/je060200b)

Experiment: molar heat capacity at constant pressure; xn = mol fraction of the nth substance listed
Details: 101 kPa, Liquid

BrCCCCCBr [1,5-dibromopentane] + CCCCCCC
molar heat capacity at constant pressure [J/K/mol]
Details | x1 = 0.1006 | x1 = 0.1994 | x1 = 0.3003 | x1 = 0.4008 | x1 = 0.5004 | x1 = 0.5999 | x1 = 0.6995 | x1 = 0.8002 | x1 = 0.899 | x1 = 1
293.15 K | 221.62 | 221.15 | 221 | 220.91 | 220.8 | 220.5 | 220.19 | 219.87 | 219.89 | 219.76
294.15 K | 221.93 | 221.54 | 221.39 | 221.29 | 221.14 | 220.66 | 220.44 | 220.16 | 220.02 | 219.98
295.15 K | 222.35 | 221.76 | 221.59 | 221.6 | 221.41 | 220.91 | 220.59 | 220.44 | 220.3 | 220.19
296.15 K | 222.62 | 222.09 | 221.89 | 221.77 | 221.59 | 221.3 | 220.81 | 220.57 | 220.61 | 220.41
297.15 K | 223.06 | 222.53 | 222.34 | 222.15 | 221.87 | 221.5 | 221.19 | 220.89 | 220.76 | 220.66
298.15 K | 223.39 | 222.84 | 222.66 | 222.48 | 222.23 | 221.68 | 221.42 | 221.11 | 221.09 | 220.84
299.15 K | 223.7 | 223.2 | 222.87 | 222.74 | 222.55 | 221.91 | 221.69 | 221.39 | 221.32 | 221.1
300.15 K | 224.16 | 223.42 | 223.3 | 222.91 | 222.69 | 222.3 | 221.83 | 221.48 | 221.55 | 221.28
301.15 K | 224.39 | 223.89 | 223.58 | 223.33 | 223.05 | 222.57 | 222.17 | 221.85 | 221.77 | 221.49
302.15 K | 224.88 | 224.24 | 223.78 | 223.52 | 223.39 | 222.87 | 222.33 | 222.09 | 221.93 | 221.73
303.15 K | 225.21 | 224.57 | 224.21 | 223.81 | 223.49 | 223.01 | 222.58 | 222.36 | 222.22 | 221.95
304.15 K | 225.49 | 224.9 | 224.44 | 224.26 | 223.94 | 223.37 | 222.93 | 222.44 | 222.36 | 222.17
305.15 K | 225.96 | 225.3 | 224.89 | 224.59 | 224.11 | 223.63 | 223.17 | 222.81 | 222.72 | 222.41
306.15 K | 226.32 | 225.5 | 225.09 | 224.8 | 224.39 | 223.91 | 223.45 | 223.05 | 222.99 | 222.63
307.15 K | 226.59 | 225.83 | 225.41 | 225.15 | 224.77 | 224.05 | 223.72 | 223.33 | 223.23 | 222.85
308.15 K | 227.03 | 226.31 | 225.84 | 225.38 | 225.09 | 224.36 | 223.89 | 223.55 | 223.34 | 223.09
309.15 K | 227.44 | 226.66 | 226.09 | 225.8 | 225.27 | 224.76 | 224.26 | 223.77 | 223.6 | 223.31
310.15 K | 227.81 | 226.87 | 226.5 | 226.12 | 225.7 | 224.95 | 224.52 | 224.04 | 223.81 | 223.56
311.15 K | 228.09 | 227.25 | 226.85 | 226.31 | 225.87 | 225.3 | 224.66 | 224.19 | 224.19 | 223.78
312.15 K | 228.59 | 227.7 | 227.09 | 226.6 | 226.24 | 225.58 | 225.06 | 224.56 | 224.44 | 224.03
313.15 K | 228.91 | 228.06 | 227.49 | 227.05 | 226.53 | 225.84 | 225.31 | 224.81 | 224.67 | 224.26
